Measured values: patent US20260364057A1, “AMIDE COMPOUND, AND COMPOSITION AND USE THEREOF” (SIMCERE ZAIMING PHARMACEUTICAL CO., LTD., priority 2022, published 2026)
pIC50: −log10 of the molar value.

Columns and labels:
Human KIF18A (1-376aa) = molecular target: T1, Human KIF18A (1-376aa) (Homo sapiens, UniProt Q8NI77); assay: KIF18A enzyme activity assay (ADP-Glo); assay type: biochemical; conditions: microtubule 50 μg/mL, ATP (Km 70 μM), room temperature, 15 min, read-out: KIF18A inhibitory activity IC50
T1 construct: Human KIF18A (1-376aa) protease used in the experiments; purchased Shanghai Panchao Biotechnology Co., Ltd
T1 sequence (Q8NI77 1-376): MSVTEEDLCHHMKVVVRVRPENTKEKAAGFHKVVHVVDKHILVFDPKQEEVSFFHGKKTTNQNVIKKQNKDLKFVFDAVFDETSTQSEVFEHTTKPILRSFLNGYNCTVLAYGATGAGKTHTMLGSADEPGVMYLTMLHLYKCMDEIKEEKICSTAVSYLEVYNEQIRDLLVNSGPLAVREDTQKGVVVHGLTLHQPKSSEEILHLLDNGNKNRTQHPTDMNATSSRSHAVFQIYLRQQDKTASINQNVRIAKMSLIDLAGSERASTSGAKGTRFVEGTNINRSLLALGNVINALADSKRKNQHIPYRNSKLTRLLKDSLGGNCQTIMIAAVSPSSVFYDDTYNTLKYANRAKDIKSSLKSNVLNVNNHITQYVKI
Method: Test Example 1: KIF18A Enzyme Activity Assay
Based on the ADP-Glo™ Kinase Assay, the ADP amount generated in the reaction was detected to reflect the enzyme activity of KIF18A.
Human KIF18A (1-376aa) […] used in the experiments, expressed by Shanghai Panchao Biotechnology Co., Ltd., was stored at −80 °C (no more than 5 freeze-thaw cycles).
The assay kit (ADP-Glo™ Kinase Assay) was purchased from Promega (Cat. No. V9101) and stored at −30 °C. The kit detects the enzyme activity by measuring ADP generated in enzyme reaction. The KIF18A enzyme and ATP generate ADP. The remaining ATP in this reaction is consumed by the ADP-Glo reagent, while the ADP generated by the KIF18A enzyme reaction is converted back to ATP by the assay reagent. The ATP then reacts with luciferin in the presence of Ultra-Glo™ luciferase, producing luminescence. The luminescent signal is positively correlated with the activity of the KIF18A enzyme.
Compounds were each subjected to 3-fold serial dilution starting from 10 μM to obtain 10 concentration points. The compounds and pure DMSO (control) were pipetted into wells of a 384-well plate using an Echo instrument, and the total volume of compound and DMSO was 100 nL; sample concentrations of gradient dilution were obtained by the instrument based on different ratios. Preparation of a KIF18A enzyme reaction buffer: […], 10 mM MgCl2, 0.01% Pluronic F-68, 1 μM Taxol, and 50 μg/mL Microtubule. KIF18A and the enzyme reaction buffer were mixed, and then the mixed solution was added to the 384-well plate and incubated at room temperature for 15 min. ATP (Km 70 μM) was then added to the mixed solution, and the mixed solution was incubated at room temperature for 15 min. 10 μL of ADP-Glo™ Reagent was well mixed with 10 μL of the mixed solution, and the mixture was incubated at room temperature for 40 min. Finally, 20 μL of ADP-Glo™ Detection Reagent was added, and the mixture was incubated at room temperature for 30 min. The chemiluminescent signal in each well was measured using an Envision plate reader (PerkinElmer, emission wavelength: 400-700 nm). In the experiment, 1 column of wells with no compound and no enzyme (chemiluminescence value was taken as [RLU]background) and 1 column of wells with enzyme but no compound (chemiluminescence value was taken as [RLU]enzyme) were provided. The chemiluminescence value of the compound adding group was taken as [RLU]cpd. The inhibition rate of the compound on […] was calculated according to the following equation: inhibition rate (%)=([RLU]enzyme−[RLU]cpd)/([RLU]enzyme−[RLU]background)×100%, and the inhibitory activity IC50 value of the compound on the enzyme activity was calculated using a four-parameter Logistic Model method. In the following equation, x represents the logarithmic form of the concentration of compound, and f (x) represents an effect value (inhibition rate of enzyme activity at the concentration): F(x)=(A+((B−A)/(1+((C/x)^D)))). A. B, C, and D are four parameters.

OVCAR3 cells = assay: Inhibition of proliferation of OVCAR-3 cells (Cell-Titer Glo); assay type: cell-based; conditions: Homo sapiens, OVCAR-3, 72 h, 3 days, 1000 cells/well
Description: Test Example 2. Test on Inhibition of Proliferation of OVCAR-3 Cells by Compounds of Present Disclosure
Cell and material: The human ovarian cancer cell line OVCAR3 was purchased from ATCC (Cat. No. HTB-161™), RPMI 1640 medium (Gibco #A1049101), penicillin-streptomycin (Gibco #15140122), and 0.25% Trypsin-EDTA (Gibco #25200056) were purchased from Gibco (U.S.), bovine insulin (Yeasen #40107ES60) was purchased from Yeasen, 384-well plates (Corning #CLS3765) was purchased from Corning (U.S.), and Cell-Titer Glo reagent (Promega #G7568) was purchased from Promega (U.S.).
Cell culture: OVCAR3 cells were cultured in RPMI 1640 complete medium (RPMI 1640 medium containing 20% fetal bovine serum, […] bovine insulin, and 1% penicillin-streptomycin) in an incubator (37 °C, 5% CO2), and the cells could be used in experiments when in the logarithmic growth phase.
Cell proliferation activity test: The Cell-Titer Glo reagent was used to test the compound for inhibition of proliferation of the OVCAR3 cell strain. The compound formulated with DMSO and pure DMSO (control) were each added to a 384-well plate using an Echo instrument; the compound was subjected to 3-fold serial dilution starting from 30 μM to obtain 11 concentration points, and the volume of the compound or DMSO added was 100 nL.
OVCAR3 cells were digested and resuspended in RPMI 1640 complete medium, and the suspension was added to a 384-well plate (1000 cells/50 μL/well) to be well mixed with the compound. The mixture was incubated in an incubator (37 °C, 5% CO2) for 3 days. The Cell-Titer Glo reagent was added at 25 µL/well, and the resulting mixture was well mixed by shaking and then incubated for 10 min. The Cell-Titer Glo readings were measured with a Multimode Plate Reader (brand: PerkinElmer; model: SIC-PV-018).
A negative control group (Bottom) was set, and the negative control group was medium wells with 0.2% DMSO added and was defined as 100% proliferation inhibition; the positive control group (Top) was OVCAR3 cell wells with 0.2% DMSO added.
The percent proliferation inhibition (% Inhibition) was calculated, and the curves were fit using the four-parameter equation, Y=Bottom+(Top−Bottom)/(1+(IC50/X)^HillSlope), to obtain the proliferation inhibition IC50 of the compound. • Percent inhibition: % Inhibition=(1−(Signal−Bottom)/(Top−Bottom))×100%. • Signal: Cell-Titer Glo reading of wells with compound added; • Bottom: Cell-Titer Glo reading of negative control wells; • Top: Cell-Titer Glo reading of positive control wells.

Structure (SMILES)	pIC50 (Human KIF18A (1-376aa))	pIC50 (OVCAR3 cells)
O=C(Nc1cccc2c1nc1n2CCOCC1)c1ccc(NS(=O)(=O)CCO)cc1N1CCC2(CC1)CC2 [Compound 53]	> 6.70	7.68
O=C(Nc1cccc2c1nc1n2C2CCC1OC2)c1ccc(NS(=O)(=O)CCO)cc1N1CCC2(CC1)CC2 (stereo not drawn) [Compound 77]	> 6.70	7.60
O=C(Nc1cccc2c1nc1n2CC2CC12)c1ccc(NS(=O)(=O)CCO)cc1N1CCC2(CC1)CC2 (stereo not drawn) [Compound 48]	> 6.70	7.69
O=C(Nc1cn2ccnc2c(N2CCC(F)(F)CC2)n1)c1ccc(NS(=O)(=O)CCO)cc1N1CCC2(CC1)CC2 [Compound 44]	> 6.70	8.04
O=C(Nc1cccc2c1nc1n2C2COC1C2)c1ccc(NS(=O)(=O)CCO)cc1N1CCC2(CC1)CC2 (stereo not drawn) [Compound 83]	> 6.30	7.07
O=C(Nc1cc(N2CCC(F)(F)CC2)n2nccc2c1)c1ccc(NS(=O)(=O)CCO)cc1N1CCC2(CC1)CC2 [Compound 81]	> 6.70	7.74
COC(=O)c1ccc(NC(=O)c2ccc(NS(=O)(=O)CCO)cc2N2CCC3(CC2)CC3)c2nc3n(c12)CCCCC3 [Compound 112]	> 6.70	7.82
O=C(Nc1cccc2c3c(nn12)CCCCC3)c1ccc(NS(=O)(=O)CCO)cc1N1CCC2(CC1)CC2 [Compound 64]	> 6.70	7.18
O=C(Nc1cc2c(c(N3CC4C(C3)C4(F)F)c1)OCC2)c1ccc(NS(=O)(=O)CCO)cc1N1CCC2(CC1)CC2 (stereo not drawn) [Compound 114]	> 6.70	7.97
O=C(Nc1cc(N2CCC(F)(F)CC2)c2occc2c1)c1ccc(NS(=O)(=O)CCO)cc1N1CCC2(CC1)CC2 [Compound 45]	> 6.70	8.18
CC1OCCn2c1nc1c(NC(=O)c3ccc(NS(=O)(=O)CCO)cc3N3CCC4(CC3)CC4)cccc12 (stereo not drawn) [Compound 56]	> 6.70	7.51
O=C(Nc1cccc2c1nc1n2C2CCC1CC2)c1ccc(NS(=O)(=O)CCO)cc1N1CCC2(CC1)CC2 [Compound 47]	> 6.70	7.25
COc1ccc(NC(=O)c2ccc(NS(=O)(=O)CCO)cc2N2CCC3(CC2)CC3)c2nc3n(c12)CCCCC3 [Compound 96]	> 6.70	7.60
Cn1cc(NC(=O)c2ccc(NS(=O)(=O)CCO)cc2N2CCC3(CC2)CC3)nc(N2CCC(F)(F)CC2)c1=O [Compound 58]	> 6.70	8.10
N#Cc1ccc(NC(=O)c2ccc(NS(=O)(=O)CCO)cc2N2CCC3(CC2)CC3)c2nc3n(c12)CC1CC31 (stereo not drawn) [Compound 92]	> 6.70	7.32
O=C(Nc1cc2ccoc2c(N2CCC(F)(F)CC2)n1)c1ccc(NS(=O)(=O)CCO)cc1N1CCC2(CC1)CC2 [Compound 106]	> 6.70	7.80

Structure (SMILES)	pIC50 (Human KIF18A (1-376aa))	pIC50 (OVCAR3 cells)
O=C(Nc1cccc2c1nc1n2CC2CC1C2(F)F)c1ccc(NS(=O)(=O)CCO)cc1N1CCC2(CC1)CC2 (stereo not drawn) [Compound 88]	> 6.70	7.01
CN1CCOc2ccc(NC(=O)c3ccc(NS(=O)(=O)CCO)cc3N3CCC4(CC3)CC4)nc21 [Compound 19]	> 6.70	
O=C(Nc1ccc(F)c2c1nc1n2CCCC1)c1ccc(NS(=O)(=O)CCO)cc1N1CCC2(CC1)CC2 [Compound 33]	> 6.70	
Cc1nc2c(NC(=O)c3ccc(NS(=O)(=O)CCO)cc3N3CCC4(CC3)CC4)cccn2c1C [Compound 9]	> 6.70	
Cc1nc2c(NC(=O)c3ccc(NS(=O)(=O)CCO)cc3N3CCC4(CC3)CC4)cccn2n1 [Compound 3]	> 6.70	
O=C(Nc1cccc2c1ccn2C1CCC1)c1ccc(NS(=O)(=O)CCO)cc1N1CCC2(CC1)CC2 [Compound 4]	> 6.70	
O=C(Nc1cc2nccn2c(N2CCC(F)(F)CC2)n1)c1ccc(NS(=O)(=O)CCO)cc1N1CCC2(CC1)CC2 [Compound 14]		7.11
O=C(Nc1cccc2c1oc1ccccc12)c1ccc(NS(=O)(=O)CCO)cc1N1CCC2(CC1)CC2 [Compound 8]	> 6.70	
C=Cc1cc2c(NC(=O)c3ccc(NS(=O)(=O)CCO)cc3N3CCC4(CC3)CC4)ccnc2n1C [Compound 27]	> 6.70	
O=C(Nc1cn(C2CC2)c(=O)c(N2CCC(F)(F)CC2)n1)c1ccc(NS(=O)(=O)CCO)cc1N1CCC2(CC1)CC2 [Compound 93]	> 6.70	
Cc1ccnc2c(NC(=O)c3ccc(NS(=O)(=O)CCO)cc3N3CCC4(CC3)CC4)ccnc12 [Compound 7]	> 6.70	
O=C(Nc1ccc2cc3n(c2n1)CCCC3)c1ccc(NS(=O)(=O)CCO)cc1N1CCC2(CC1)CC2 [Compound 26]	> 6.70	
O=C(Nc1cc2c(c(N3CCC(F)(F)CC3)n1)CCC2)c1ccc(NS(=O)(=O)CCO)cc1N1CCC2(CC1)CC2 [Compound 66]	> 6.30	
O=C(Nc1ccnc2c1ccn2CCC(F)(F)F)c1ccc(NS(=O)(=O)CCO)cc1N1CCC2(CC1)CC2 [Compound 5]	> 6.70	
O=C(Nc1ccc(=O)n(C2=CCC(F)(F)CC2)n1)c1ccc(NS(=O)(=O)CCO)cc1N1CCC2(CC1)CC2 [Compound 75]	> 6.70	
